Activity calls are given as the source filed them. The calls are words filed in the database; no cut-off is given here.
What was measured:
[1] = tested on: Staphylococcus aureus; experiment: Antibacterial activity against methicillin-resistant Staphylococcus aureus ATCC 43300 assessed as inhibition of bacterial growth at pH 6.5 incubated for 24 hrs by NCCLS protocol based method; format: functional
[2] = Cytotoxicity against mouse RAW264.7 cells assessed as inhibition of cell growth at pH 6.5 measured after 24 hrs by MTT assay; format: toxicity, cell-based
[3] = tested on: Pseudomonas aeruginosa; experiment: Induction of morphological changes in Pseudomonas aeruginosa ATCC 27853 assessed as plasma membrane collapse at 2 uM at pH 6.5 incubated for 1 hr by TEM analysis; format: functional, organism-based
[4] = tested on: Pseudomonas aeruginosa; experiment: Induction of morphological changes in Pseudomonas aeruginosa ATCC 27853 assessed as disruption in cell membrane at 2 uM at pH 7.4 incubated for 1 hr by SEM analysis; format: functional, organism-based
[5] = tested on: Staphylococcus aureus; experiment: Antibacterial activity against Staphylococcus aureus ATCC 25923 assessed as inhibition of bacterial growth at pH 7.4 incubated for 24 hrs by NCCLS protocol based method; format: functional
[6] = tested on: Staphylococcus epidermidis; experiment: Antibacterial activity against Staphylococcus epidermidis ATCC 12228 assessed as inhibition of bacterial growth at pH 6.5 incubated for 24 hrs by NCCLS protocol based method; format: functional
[7] = tested on: Pseudomonas aeruginosa; experiment: Antipseudomonal activity against Pseudomonas aeruginosa ATCC 27853 infected in ICR cutaneous abscess mouse model assessed as fold reduction in colony forming unit at 5 mg/kg,ip administered twice a day measured after 72 hrs relative to control; format: functional
[8] = tested on: Salmonella typhimurium; experiment: Antibacterial activity against Salmonella enterica subsp. enterica serovar Typhimurium C77-31 assessed as inhibition of bacterial growth at pH 7.4 incubated for 24 hrs by NCCLS protocol based method; format: functional
[9] = tested on: Pseudomonas aeruginosa; experiment: Antimicrobial activity against Pseudomonas aeruginosa ATCC 27853 infected in ICR cutaneous abscess mouse model assessed as reduction in necrotic tissue area in infection site at 5 mg/kg,ip administered twice a day measured after 3 days by hematoxylin and eosin staining based analysis; format: functional, organism-based; settings: time 3.0 day
[10] = tested on: Staphylococcus epidermidis; experiment: Antibacterial activity against Staphylococcus epidermidis ATCC 12228 assessed as inhibition of bacterial growth at pH 7.4 incubated for 24 hrs by NCCLS protocol based method; format: functional
[11] = tested on: Mus musculus; experiment: Antiinflammatory activity in ICR cutaneous abscess mouse model assessed as reduction in IL-1alpha expression in serum at 5 mg/kg,ip administered twice a day measured after 72 hrs by ELISA (reference value: 9.9 +/ 0.42 10^1pg/ml); format: functional
[12] = tested on: Staphylococcus aureus; experiment: Antibacterial activity against Staphylococcus aureus ATCC 25923 assessed as inhibition of bacterial growth at pH 6.5 incubated for 24 hrs by NCCLS protocol based method; format: functional
[13] = tested on: Escherichia coli; experiment: Antibacterial activity against Escherichia coli ATCC 25922 assessed as inhibition of bacterial growth at pH 7.4 incubated for 24 hrs by NCCLS protocol based method; format: functional
[14] = tested on: Lipopolysaccharide (LPS); experiment: Displacement of BODIPY-TR-cadaverin from Pseudomonas aeruginosa ATCC 27316 Lipopolysaccharide at 1 to 64 uM at pH 7.4 incubated for 1 hr by fluorescence based analysis relative to control; settings: dose 1-64 µM

Substance: H-FLEHLIPHVIHGLVHAIHH-NH2
- MIC [1]: 64 µM
- IC50 at 24 h [2]: > 128 µM
- Activity [3]: Active
- Activity [4]: inactive
- MIC [5]: > 64 µM
- MIC [6]: > 64 µM
- fold change (FC) [7]: 10
- MIC [8]: > 64 µM
- Activity [9]: Active
- MIC [10]: > 64 µM
- Activity [11]: 6.67 10^1pg/ml
- MIC [12]: > 64 µM
- MIC [13]: > 64 µM
- Activity [14]: 22.9%
